Measurements reported in patent US12264173B2 (GILEAD SCIENCES, INC., priority 2020, dated 2025).
Read-outs that look alike come from different tables or passages of the source.

What was measured:
Type in all cases: cell-based
RSV strain A2 = assay: microbe, parasite or virus in culture; conditions: read-out: RSV HEp-2 EC50
Outline: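 Cytopathic-effect protection assay: HEp-2 cells (50,000/mL) infected with pre-titered RSV A2 onto 3-fold serial compound dilutions, incubated 4 days at 37° C. Cell viability read by CellTiter-Glo luminescence; percent inhibition derived against 0% and 100% virus-inhibition controls.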

RSV A2 = assay: RSV NHBE EC50 (RSV A2 antiviral assay in NHBE cells); conditions: read-out: RSV NHBE EC50
Outline: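 NHBE cells (7,500/well, passage ≤6) given 3-fold serially diluted compound (0.05% DMSO final), then infected with RSV A2 at 1×10^4.5 tissue culture infectious doses/mL. After 4 days at 37 °C, viability measured by CellTiter-Glo luminescence at 25 °C.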

HRV16 = HRV16 HeLa EC50 (cytopathic effect in H1-HeLa cells); conditions: read-out: HRV16 HeLa EC50
Outline: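 H1-HeLa cells seeded one day before, given 3-fold serial compound dilutions in triplicate just prior to infection with pre-titrated virus. Incubated 96 h at 33 °C/5% CO2; protection from cytopathic effect read as viability by CellTiter-Glo luminescence, normalised to infected untreated (0%) and uninfected (100%) controls.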

DENV2 replicon = assay: DENV-2 Huh-7 Rep EC50 (replicon luminescence)
Outline: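 Huh-7 cells carrying a DENV2 replicon, 5,000 cells/well, were incubated with dosed compounds for 48 h at 37° C. EnduRen live-cell substrate was added 1.5 h before luminescence reading. EC50 came from dose-response against DMSO-only wells.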

[1] = human respiratory syncytial virus, HEp-2, 96 h, Table 3, HEp-2 cells, RSV A2, 4 days
[2] = human respiratory syncytial virus, NHBE, 96 h, Table 3, NHBE cells, RSV A2, 4 days
[3] = 96 h, Table 3, H1-HeLa cells, 96 h
[4] = Dengue virus, DENV2, Huh-7, 48 h, read-out: DENV-2 REP Huh7 EC50
[5] = Dengue virus, DENV2, Huh-7, 48 h, read-out: DENV-2 REP Huh7 EC50, Table 3, Huh-7 DENV2 replicon cells, 48 hours
[6] = Table 3, HEp-2 cells, RSV A2, 4 days
[7] = Table 3, NHBE cells, RSV A2, 4 days
[8] = Table 3, Huh-7 DENV2 replicon cells, 48 hours, read-out: DENV-2 REP Huh7 EC50

SMILES	EC50 (RSV strain A2; [1]) [µM]	EC50 (RSV A2; [2]) [µM]	EC50 (HRV16; [3]) [µM]	EC50 (DENV2 replicon; [4]) [µM]	EC50 (DENV2 replicon; [5]) [µM]	EC50 (RSV strain A2; [6]) [µM]	EC50 (RSV A2; [7]) [µM]	EC50 (HRV16; Table 3, H1-HeLa cells, 96 h) [µM]	EC50 (DENV2 replicon; [8]) [µM]	also measured
CC(C)C(=O)O[C@H]1[C@H](c2ccc3c(N)ncnn23)O[C@](C#N)(COP(=O)(N[C@@H](C)C(=O)OC2COC2)Oc2ccccc2)[C@H]1OC(=O)C(C)C (stereo partly drawn) [Example 184, (2R,3S,4S,5S)-5-(4-aminopyrrolo[2,1-f][1,2,4]triazin-7-yl)-2-cyano-2-((((((S)-1-(oxetan-3-yloxy)-1-oxopropan-2-yl)amino)(phenoxy)phosphoryl)oxy)methyl) tetrahydrofuran-3,4-diyl bis(2-methylpropanoate)]	0.079	0.013	0.057	5.96						EC50 (RSV strain A2; human respiratory syncytial virus, HEp-2, Table 5 comparative activity, 2',3'-OH vs -OC(O)iPr): 0.079 µM; EC50 (RSV A2; human respiratory syncytial virus, NHBE, Table 5 comparative activity, 2',3'-OH vs -OC(O)iPr): 0.013 µM; EC50 (HRV16; HeLa, Table 5 comparative activity, 2',3'-OH vs -OC(O)iPr): 0.057 µM
CCCCOC(=O)[C@H](C)NP(=O)(N[C@@H](C)C(=O)OCCCC)OC[C@@]1(C#N)O[C@@H](c2ccc3c(N)ncnn23)[C@H](OC(=O)CC)[C@@H]1OC(=O)CC [Example 193]	0.61	0.125	1.62		30					
CCCCC(=O)O[C@H]1[C@H](c2ccc3c(N)ncnn23)O[C@](C#N)(COP(=O)(N[C@@H](C)C(=O)OCC)N[C@@H](C)C(=O)OCC)[C@H]1OC(=O)CCCC [Example 194, (2R,3S,4S,5S)-5-(4-Aminopyrrolo[2,1-f][1,2,4]triazin-7-yl)-2-(((bis(((S)-1-ethoxy-1-oxopropan-2-yl)amino)phosphoryl)oxy)methyl)-2-cyanotetrahydrofuran-3,4-diyl dipentanoate]	0.391	0.529	2.09		30.9					
CCC(=O)O[C@H]1[C@H](c2ccc3c(N)ncnn23)O[C@](C#N)(COP(=O)(N[C@@H](C)C(=O)OC2CCC2)Oc2ccccc2)[C@H]1OC(=O)CC (stereo partly drawn) [Example 195, (2R,3S,4S,5S)-5-(4-aminopyrrolo[2,1-f][1,2,4]triazin-7-yl)-2-cyano-2-((((((S)-1-cyclobutoxy-1-oxopropan-2-yl)amino)(phenoxy)phosphoryl)oxy)methyl) tetrahydrofuran-3,4-diyl dipropionate]						0.023	0.059	0.126	6.45	
CCC(=O)O[C@H]1[C@H](c2ccc3c(N)ncnn23)O[C@](C#N)(CO[P@](=O)(N[C@@H](C)C(=O)OC2CCC2)Oc2ccccc2)[C@H]1OC(=O)CC [Example 196, (2R,3S,4S,5S)-5-(4-aminopyrrolo[2,1-f][1,2,4]triazin-7-yl)-2-cyano-2-((((R)-(((S)-1-cyclobutoxy-1-oxopropan-2-yl)amino)(phenoxy)phosphoryl)oxy)methyl) tetrahydrofuran-3,4-diyl dipropionate]						0.042	0.027	0.096	1.96	
CC(C)C(=O)O[C@H]1[C@H](c2ccc3c(N)ncnn23)O[C@](C#N)(COP(=O)(N[C@@H](C)C(=O)OC2CCC2)Oc2ccccc2)[C@H]1OC(=O)C(C)C (stereo partly drawn) [Example 197, (2R,3S,4S,5S)-5-(4-aminopyrrolo[2,1-f][1,2,4]triazin-7-yl)-2-cyano-2-((((((S)-1-cyclobutoxy-1-oxopropan-2-yl)amino)(phenoxy)phosphoryl)oxy)methyl) tetrahydrofuran-3,4-diyl bis(2-methylpropanoate)]						0.028	0.033	0.094	4.46	
CC(=O)O[C@H]1[C@H](c2ccc3c(N)ncnn23)O[C@](C#N)(COP(=O)(N[C@@H](C)C(=O)OC2CCC2)Oc2ccccc2)[C@H]1OC(C)=O (stereo partly drawn) [Example 198, (2R,3S,4S,5S)-5-(4-aminopyrrolo[2,1-f][1,2,4]triazin-7-yl)-2-cyano-2-((((((S)-1-cyclobutoxy-1-oxopropan-2-yl)amino)(phenoxy)phosphoryl)oxy)methyl) tetrahydrofuran-3,4-diyl diacetate]						0.048	0.037	0.319	6.62	
CCC(=O)O[C@H]1[C@H](c2ccc3c(N)ncnn23)O[C@](C#N)(COP(=O)(N[C@@H](C)C(=O)OC)N[C@@H](C)C(=O)OC)[C@H]1OC(=O)CC [Example 199]	4.11	0.235	19.5		> 50					
CC(C)C(=O)O[C@H]1[C@H](c2ccc3c(N)ncnn23)O[C@](C#N)(COP(=O)(N[C@@H](C)C(=O)OCC2COC2)Oc2ccccc2)[C@H]1OC(=O)C(C)C (stereo partly drawn) [Example 200, (2R,3S,4S,5S)-5-(4-aminopyrrolo[2,1-f][1,2,4]triazin-7-yl)-2-cyano-2-((((((S)-1-(oxetan-3-ylmethoxy)-1-oxopropan-2-yl)amino)(phenoxy)phosphoryl)oxy)methyl) tetrahydrofuran-3,4-diyl bis(2-methylpropanoate)]	0.058	0.012	0.12	2.18						
CCC(=O)O[C@H]1[C@H](c2ccc3c(N)ncnn23)O[C@](C#N)(COP(=O)(N[C@@H](C)C(=O)OCC2COC2)Oc2ccccc2)[C@H]1OC(=O)CC (stereo partly drawn) [Example 203, (2R,3S,4S,5S)-5-(4-aminopyrrolo[2,1-f][1,2,4]triazin-7-yl)-2-cyano-2-((((((S)-1-(oxetan-3-ylmethoxy)-1-oxopropan-2-yl)amino)(phenoxy)phosphoryl)oxy)methyl) tetrahydrofuran-3,4-diyl dipropionate]	0.095	0.038	0.359	9.5						
C[C@H](NP(=O)(OC[C@@]1(C#N)O[C@@H](c2ccc3c(N)ncnn23)[C@H](OC(=O)C(C)(C)C)[C@@H]1OC(=O)C(C)(C)C)Oc1ccccc1)C(=O)OC1COC1 (stereo partly drawn) [Example 206, (2R,3S,4S,5S)-5-(4-aminopyrrolo[2,1-f][1,2,4]triazin-7-yl)-2-cyano-2-((((((S)-1-(oxetan-3-yloxy)-1-oxopropan-2-yl)amino)(phenoxy)phosphoryl)oxy)methyl) tetrahydrofuran-3,4-diyl bis(2,2-dimethylpropanoate)]	0.338	0.036	0.308	7.59						
CCCCC(=O)O[C@H]1[C@H](c2ccc3c(N)ncnn23)O[C@](C#N)(COP(=O)(N[C@@H](C)C(=O)OCC)N[C@@H](C)C(=O)OCC)[C@H]1OC(=O)CCCC [Example 211, (2R,3S,4S,5S)-5-(4-Aminopyrrolo[2,1-f][1,2,4]triazin-7-yl)-2-(((bis(((S)-1-ethoxy-1-oxopropan-2-yl)amino)phosphoryl)oxy)methyl)-2-cyanotetrahydrofuran-3,4-diyl dipentanoate]						0.653	0.946	1.97		EC50 (DENV2 replicon; read-out: DENV-2 REP Huh7 EC50, Table 3, Huh-7 DENV2 replicon cells, 48 hours): 28.9 µM
CCCC(=O)O[C@H]1[C@H](c2ccc3c(N)ncnn23)O[C@](C#N)(COP(=O)(N[C@@H](C)C(=O)OC)N[C@@H](C)C(=O)OC)[C@H]1OC(=O)CCC [Example 212, (2R,3S,4S,5S)-5-(4-Aminopyrrolo[2,1-f][1,2,4]triazin-7-yl)-2-(((bis(((S)-1-methoxy-1-oxopropan-2-yl)amino)phosphoryl)oxy)methyl)-2-cyanotetrahydrofuran-3,4-diyl dibutyrate]	1.18	0.451	6.12		> 71.4					
